From patent publication US8058243B2, “Method for treating a brain cancer with ifenprodil” (HSC Research and Development Limited Partnership, priority 2006, dated 2011)
Counter-ions that a name gives are not always drawn. Like-named read-outs stand apart in the source and are kept apart here.

Test system: murine neural precursor cells (neurosphere cultures)
Assay: HTS of LOPAC library against secondary neurosphere cultures, MTT proliferation assay at 3 μM, day 7 (z score, P value)
Assay type: cell-based, mouse
[1] = LOPAC library screen, 3 μM, MTT, neurosphere cultures
[2] = LOPAC primary screen, neurosphere MTT proliferation, 3 μM, day 7
[3] = yes = significantly inhibited neurosphere proliferation (P<0.01) in the primary screen
[4] = yes/no: significantly inhibited neurosphere proliferation in primary screen
[5] = yes/no: significantly inhibited neurosphere proliferation (P<0.01) in primary screen
[6] = LOPAC library screen at 3 μM, MTT, secondary neurosphere cultures, screened in singlets
[7] = LOPAC library screen, 3 μM, MTT, secondary neurosphere cultures, day 7
[8] = yes/no: significantly inhibited neurosphere proliferation (P<0.01) in the primary screen
[9] = LOPAC screen, neurosphere MTT proliferation, 3 μM, day 7
[10] = primary LOPAC screen, 3 μM, MTT, neurosphere proliferation
[11] = yes/no: significantly inhibited neurosphere proliferation in the primary screen
[12] = LOPAC library screen at 3 μM, secondary neurosphere cultures, MTT

## CC(C)N(CCC(=O)c1ccc2ccccc2c1)Cc1ccccc1 [ZM 39923 hydrochloride]
[1]
  Z Score: 0.7457
[2]
  Z score: 0.746
[3]
  Activity: no

## Br.CN=c1nc(-c2ccccc2)n(-c2ccccc2)s1 [SCH-202676 hydrobromide]
  Z Score: 0.3599
[2]
  Z score: 0.360
[4]
  Activity: no

## Nc1ccc(N2C(=O)c3ccccc3C2=O)c(Cl)c1 [L-655,708]
  Z Score: −0.6132
[2]
  Z score: −0.613
[5]
  Activity: no

## CCN(CC)CC.Nc1ncnc2c1ncn2C1OC2COP(O)(=S)O[C@@H]2[C@@H]1O (some centres unmarked) [Rp-cAMPS triethylamine]
  Activity: no
  Z Score: 1.186
  Z score: 1.186

## Cc1oncc1C(=O)Nc1ccc(C(F)(F)F)cc1 [Leflunomide]
[6]
  Z Score: 4.103
[2]
  Z score: 4.103
[5]
  Activity: no

## Br.Cc1o[nH]c(=O)c1CC(N)C(=O)O (racemic) [(±)-AMPA hydrobromide]
[2]
  Z score: −0.427
[5]
  Activity: no

## CN1C[C@H](CNC(=O)OCc2ccccc2)C[C@@H]2c3cccc4c3c(cn4C)C[C@H]21 [Metergoline (39), Metergoline, reference compound]
[7]
  Z Score: −4.342
[2]
  Z score: −4.342
[8]
  Activity: yes

## Cl.NCCCCNS(=O)(=O)c1ccc2c(Cl)cccc2c1 [N-(4-Aminobutyl)-5-chloro-2-naphthalenesulfonamide hydrochloride]
168 h, 3 µM
  Z Score: −0.9229

## C[C@@H]1O[C@H](C[N+](C)(C)C)CS1.[I-] [OXA-22 iodide]
  Activity: no
  Z Score: −1.666
  Z score: −1.666

## O=C(O)CCCCC1CCSS1 (racemic) [(±)-alpha-Lipoic Acid]
[2]
  Z score: 0.342
[4]
  Activity: no

## NCCCS(=O)(=O)O.[Na] [3-Amino-1-propanesulfonic acid sodium]
[7]
  Z Score: −6.691
[2]
  Z score: −6.691
[8]
  Activity: yes

## CN(C)CCC(c1ccc(Br)cc1)c1ccccn1.O=C(O)/C=C\C(=O)O (centres unmarked) [(B1)-Brompheniramine maleate]
  Z Score: −3.53

## CC(=O)OCC(=O)[C@@]1(O)CC[C@H]2[C@@H]3CCC4=CC(=O)CC[C@]4(C)[C@H]3C(=O)C[C@@]21C [Cortisone 21-acetate]
[7]
  Z Score: −2.218
[9]
  Z score: −2.218
[5]
  Activity: no

## CC[C@@H](CO)NC(=O)[C@@H]1C=C2c3cccc4c3c(cn4C)C[C@H]2N(C)C1 [Methysergide maleate]
  Z Score: −0.01983
[2]
  Z score: −0.020
[3]
  Activity: no

## CC12NC(Cc3ccccc31)c1ccccc12.O=C(O)/C=C\C(=O)O (single isomer, unassigned; (+)) [(+)-MK-801 hydrogen maleate]
  Z Score: −0.09805
[2]
  Z score: −0.098
[3]
  Activity: no

## S(−)-p-Bromotetramisole oxalate
  Z Score: −1.295
[2]
  Z score: −1.295
[4]
  Activity: no

## N[C@H](C(=O)O)c1cc(O)no1 [(B1)-Ibotenic acid]
  Z Score: −1.65

## C[C@@H](N)[C@H]1CC[C@H](C(=O)Nc2ccncc2)CC1 [Y-27632 dihydrochloride]
168 h, 3 µM
  Z Score: −0.1255
  Z score: −0.125
[5]
  Activity: no

## CN1CCC[C@@H]1CCO[C@](C)(c1ccccc1)c1ccc(Cl)cc1 [Clemastine fumarate]
168 h, 3 µM
  Z Score: −2.023
  Z score: −2.023

## CCCCC/C=C\C[C@@H](O)/C=C/c1cccc(C[C@@H](O)CCCCO)n1 [U-75302]
  Z Score: −0.1722
[10]
  Z score: −0.172
[11]
  Activity: no

## OC[C@H]1O[C@@H](n2cnc3ccccc32)[C@H](O)[C@@H]1O [D-ribofuranosylbenzimidazole]
  Z Score: −2.144
[9]
  Z score: −2.144
[5]
  Activity: no

## COc1ccc([C@@H]2Sc3ccccc3N(CCN(C)C)C(=O)[C@@H]2OC(C)=O)cc1 [Diltiazem hydrochloride]
  Activity: no
[1]
  Z Score: 0.5395
[9]
  Z score: 0.540

## CCn1cc(C(=O)O)c(=O)c2ccc(C)nc21 [Nalidixic acid sodium]
  Z Score: −0.3145
[2]
  Z score: −0.314
[3]
  Activity: no

## O=C(CCCN1CC=C(n2c(=O)[nH]c3ccccc32)CC1)c1ccc(F)cc1 [Droperidol]
  Activity: no
[1]
  Z Score: 0.6447
[9]
  Z score: 0.645

## Br.C[N+](C)(C)CCCCCNCC12CC3CC(CC(C3)C1)C2.[Br-] [IEM-1460]
  Z Score: 0.6848
[2]
  Z score: 0.685
[5]
  Activity: no

## N[C@@H](Cc1ccc(O)c(O)c1)C(=O)O [L-3,4-Dihydroxyphenylalanine]
168 h, 3 µM
  Z Score: 2.44
  Z score: 2.440
[5]
  Activity: no

## CNC[C@H](O)c1ccc(O)c(O)c1.O=C(O)C(O)C(O)C(=O)O [(−)-Epinephrine bitartrate]
[12]
  Z Score: −0.5304
[2]
  Z score: −0.530
[5]
  Activity: no

## NC(CO)C(=O)NNCc1ccc(O)c(O)c1O (centres unmarked) [Benserazide hydrochloride]
  Activity: no
[1]
  Z Score: 0.007467
[9]
  Z score: 0.007

## CCCCCCC(C)(C)c1ccc([C@@H]2C[C@H](O)CC[C@H]2CCCO)c(O)c1 [CP55940]
  Z Score: 1.396
[10]
  Z score: 1.396
[11]
  Activity: no

## CNC(=O)[C@H]1O[C@@H](n2cnc3c(NCc4cccc(I)c4)ncnc32)[C@H](O)[C@@H]1O [IB-MECA]
[12]
  Z Score: −1.089
[2]
  Z score: −1.089
[5]
  Activity: no

## CN1CCN(CCCN2c3ccccc3Sc3ccc(C(F)(F)F)cc32)CC1 [Trifluoperazine dihydrochloride]
168 h, 3 µM
  Z Score: −9.305
  Z score: −9.305
[8]
  Activity: yes

## (−)-Naproxen sodium
[1]
  Z Score: 0.6024
[2]
  Z score: 0.602
[3]
  Activity: no

## C[N+](C)(C)CCOC(=O)CBr.[Br-] [Bromoacetylcholine bromide]
  Z Score: −0.3547
[9]
  Z score: −0.355
[5]
  Activity: no

## CN(C)CCCN1c2ccccc2Sc2ccc(C(F)(F)F)cc21 [Triflupromazine hydrochloride]
[7]
  Z Score: −1.82
[2]
  Z score: −1.820
[8]
  Activity: no

## COc1nc(C)nc(Cl)c1N=C1NCCN1 [Moxonidine hydrochloride]
[1]
  Z Score: 0.2171
[2]
  Z score: 0.217
[3]
  Activity: no

## Cc1ncc(CNC(=O)N(CCCl)N=O)c(N)n1 [Nimustine hydrochloride]
  Z Score: −0.6524

## O=NN(CCCl)C(=O)NCCCl [Carmustine]
[6]
  Z Score: 2.191
[9]
  Z score: 2.191
[5]
  Activity: no

## Nc1nc2c(nc(Br)n2[C@@H]2O[C@@H]3COP(=O)([O-])O[C@H]3[C@H]2O)c(=O)[nH]1.[Na+] [8-Bromo-cGMP sodium]
  Z Score: −1.005
[10]
  Z score: −1.005
[11]
  Activity: no

## CCCc1c(-c2ccc(O)cc2)nn(-c2ccc(O)cc2)c1-c1ccc(O)cc1 [1,3,5-tris(4-hydroxyphenyl)-4-propyl-1H-pyrazole]
168 h, 3 µM
  Z Score: 0.7717
  Z score: 0.772
[5]
  Activity: no

## CN1CCc2cccc(Cl)c2CC1 [SKF 86466]
  Z Score: 0.8822
[2]
  Z score: 0.882
[3]
  Activity: no

## CN1CCc2cc(Cl)c(O)cc2[C@@H](c2ccccc2)C1.Cl [R(+)-SCH-23390 hydrochloride]
[1]
  Z Score: 1.375
[9]
  Z score: 1.375
[5]
  Activity: no

## N[C@@H]1CONC1=O (racemic) [DL-Cycloserine]
[12]
  Z Score: −0.2986
[9]
  Z score: −0.299
[5]
  Activity: no

## CC(C)(C(=O)O)c1ccc(C(O)CCCN2CCC(C(O)(c3ccccc3)c3ccccc3)CC2)cc1 (centres unmarked) [Fexofenadine hydrochloride]
  Activity: no
[12]
  Z Score: −0.7572
[2]
  Z score: −0.757

## CCOC(=O)c1cnc2c(cnn2CC)c1NN=C(C)C [Etazolate hydrochloride]
168 h, 3 µM
  Z Score: −0.2465
  Z score: −0.247
[5]
  Activity: no

## O=C(Nc1ccc([N+](=O)[O-])cc1Cl)c1cc(Cl)ccc1O [Niclosamide]
[7]
  Z Score: −2.784
[2]
  Z score: −2.784
[8]
  Activity: yes

## Cn1c(=O)c2[nH]cnc2n(C)c1=O [Theophylline]
  Activity: no
[1]
  Z Score: 0.3699
[10]
  Z score: 0.370

## Clc1ccc(Cn2c(CN3CCCC3)nc3ccccc32)cc1 [Clemizole hydrochloride]
[6]
  Z Score: 2.788
[9]
  Z score: 2.788
[5]
  Activity: no

## Cc1nc2ccccn2c(=O)c1CCN1CCC(C(=O)c2ccc(F)cc2)CC1 [Pirenperone]
[1]
  Z Score: 0.2279
[2]
  Z score: 0.228
[8]
  Activity: no

## NNC(=O)c1ccc(O)cc1 [4-Hydroxybenzhydrazide]
  Z Score: −0.7888
[2]
  Z score: −0.789
[5]
  Activity: no

## CGP 20712A methanesulfonate
[1]
  Z Score: 0.6491
[9]
  Z score: 0.649
[5]
  Activity: no

## Cc1nnc2ccc(-c3cccc(C(F)(F)F)c3)nn12 [3-Methyl-6-(3-[trifluoromethyl]phenyl)-1,2,4-triazolo[4,3-b]pyridazine]
  Z Score: 0.09095
[2]
  Z score: 0.091
[3]
  Activity: no

## c1ccc(C2CN3CCSC3=N2)cc1 (centres unmarked) [Tetramisole hydrochloride]
[6]
  Z Score: 2.649
[10]
  Z score: 2.649
[11]
  Activity: no

## O=C(CCc1ccc(O)cc1)c1c(O)cc(O)cc1O [Phloretin]
168 h, 3 µM
  Z Score: 0.9165
  Z score: 0.916

## NC1CCN(O)C1=O (racemic) [(±)-HA-966]
  Activity: no
[10]
  Z score: 1.157
